Experiments:
[1] = tested on: ASM cells in lung-chip; assay: Cell rheology measurements using the lung-chip platform (frequency-domain OMTC); type: cell-based, human; details: frequency-domain OMTC on lung-chip
Description: (§1) Magnetic twisting cytometry with optical detection was used to quantitatively assess dynamic changes in cell stiffness as an indicator of single-cell contraction or relaxation of HASM cells, as previously described. In brief, ferrimagnetic microbeads (4.5 μm in diameter) coated with synthetic Arg-Gly-Asp (RGD) containing peptide (American Peptide Company) bound to the cytoskeleton through cell surface integrin receptors were magnetized horizontally. Subsequently, a vertically aligned homogeneous magnetic field varying sinusoidally in time applied an oscillatory torque, leading to both a rotation and a pivoting displacement of the bead (FIG. 18B). Measurements were performed at a single frequency of 0.75 Hz or oscillatory frequencies between 10^−1 and 10^3 Hz for cell rheology measurements (FIG. 21). Lateral bead displacements in response to the resulting oscillatory torque were detected optically (in spatial resolution of ˜5 nm), and the ratio of specific torque to bead displacement was computed as the cell stiffness in units of Pascals (Pa) per nanometer. For drug-induced single-cell contraction or relaxation, changes in HASM stiffness were measured in real-time for the duration of 300 seconds. For each individual cell, the baseline stiffness was measured for the first 60 seconds, and after drug addition, the stiffness was measured continuously for the next 240 seconds.

[2] = tested on: primary ASM cells from asthmatic and non-asthmatic donors; assay: HASM stiffness measurements: drug-induced single-cell contraction or relaxation, asthmatic vs non-asthmatic ASM cells; type: cell-based, human
Protocol: (§2) Primary human epithelial and smooth muscle cells were harvested from the proximal airways (first through third order bronchi) of donor lungs unsuitable for transplantation (Table I) in accordance with the Institutional Review Boards at the University of Pennsylvania. Primary normal human bronchial epithelial (NHBE) cells were grown in collagen-coated flasks (GIBCO) using serum-free BEGM Bronchial Epithelial Cell Growth Medium™ with BulletKit™ Supplements (Lonza) and subsequently trypsinized and seeded onto porous polycarbonate membranes (either inside microfluidic devices or on transwell inserts) at 100,000 cells/cm^2. The polycarbonate membranes were coated with collagen type I (30 μg/ml; GIBCO) at 37° C. for 18 h before cell seeding. After NHBE cells reached confluence (within 3-5 days), the apical medium was removed and the basal medium was replaced with differentiation medium (PneumaCult-ALI™ Medium and Supplements, StemCell Technologies). The NHBE cells were maintained at the ALI for 2-3 weeks, until they differentiated into a pseudostratified layer. Excess mucus on the air side was washed away with warm PBS weekly. After NHBE differentiation in the microfluidic chips, primary HASM cells were seeded into the bottom compartment. Approximately 18 h before the live-cell micromechanical experiments using MTC, the culture medium of HASM cells was changed to serum-free minimal media (1:1 vol/vol mixture of DMEM Dulbecco's modified Eagle's medium and Ham's F-12 medium, supplemented with insulin […]), and cells were maintained at 37° C. in humidified air containing 5% CO2. The overnight media was then washed and replaced with fresh minimal media before the experiments. This minimal media procedure was applied to NHBE cells as well before compressive-stress application. For experiments involving Celecoxib or Verteporfin (Sigma Aldrich), NHBE cells were pre-treated with the drugs before the second washing step, as the presence of Celecoxib in the infranatant affected HASM mechanics (FIGS. 19A-B), and Verteporfin in the infranatant would have phototoxic effects on HASM cells during the live-cell micromechanical measurements. Since Verteporfin is a photosensitizer, treatment of NHBE cells was always performed in the dark.
as §1, with “Subsequently, a vertically aligned homogeneous magnetic field varying sinusoidally in time applied an oscillatory torque, leading to both a rotation and a pivoting displacement of the bead (FIG. 18B). Measurements were performed at a single frequency of 0.75 Hz or oscillatory frequencies between 10^−1 and 10^3 Hz for cell rheology measurements (FIG. 21).” left out

[3] = tested on: ASM cells in lung-chip co-culture with airway epithelial cells; assay: Lung-chip: ASM contraction after compressive stress on the epithelial layer (OMTC); type: cell-based, human; details: after 30 cmH2O compressive stress; 10 μM methacholine, followed by 1 μM PGE2
Protocol: The upper and lower layer of the microfluidic device were fabricated using standard soft lithography techniques by casting a flexible and optically transparent polydimethylsiloxane (PDMS) polymer on a mold and cross-linking at 80° C. for 2 hours. The mold was fabricated using optical lithography with an epoxy-based negative photoresist (SU8) that yields thick and robust structures. The two PDMS layers each had compartments with 5 mm width, 20 mm length, and 300 μm height, and around 100 support pillars with 200 μm diameter distributed across the compartments. The two compartments were separated by an optically-clear polycarbonate membrane (Sterlitech) with 5 μm diameter holes, allowing cells on both sides of the membranes to chemically interact. To construct the complete chip, first a PDMS layer and the polycarbonate membrane were exposed to an oxygen plasma (30 W, 700 mTorr, 30 sec) to chemically activate their surfaces. Immediately after the plasma treatment, the PDMS surface was silanized using 5 μl of an APTES solution (1% 3-aminopropyltriethoxysilane in water) and the polycarbonate membrane was allowed to bond to it. After 2 hours of bonding at room temperature, the process was repeated to bond the second PDMS compartment to the other side of the polycarbonate membrane. […]

[4] = tested on: primary human airway epithelial cells (NHBE); readout on HASM cells; assay: ASM cell contraction (OMTC stiffness) in response to infranatant from drug-treated epithelial cells exposed to compressive stress; type: cell-based; details: epithelial cells treated with drug; 30 cmH2O, 0h vs 3h pressure
Protocol: (§3) Primary human epithelial and smooth muscle cells were harvested from the proximal airways (first through third order bronchi) of donor lungs unsuitable for transplantation (Table I) in accordance with the Institutional Review Boards at the University of Pennsylvania. Primary normal human bronchial epithelial (NHBE) cells were grown in collagen-coated flasks (GIBCO) using serum-free BEGM Bronchial Epithelial Cell Growth Medium™ with BulletKit™ Supplements (Lonza) and subsequently trypsinized and seeded onto porous polycarbonate membranes (either inside microfluidic devices or on transwell inserts) at 100,000 cells/cm^2. The polycarbonate membranes were coated with collagen type I (30 μg/ml; GIBCO) at 37° C. for 18 h before cell seeding. After NHBE cells reached confluence (within 3-5 days), the apical medium was removed and the basal medium was replaced with differentiation medium (PneumaCult-ALI™ Medium and Supplements, StemCell Technologies). The NHBE cells were maintained at the ALI for 2-3 weeks, until they differentiated into a pseudostratified layer. Excess mucus on the air side was washed away with warm PBS weekly. […]
Magnetic twisting cytometry with optical detection was used to quantitatively assess dynamic changes in cell stiffness as an indicator of single-cell contraction or relaxation of HASM cells, as previously described. […]

[5] = tested on: airway epithelial cells; assay: Gene expression analysis (TaqMan real-time PCR) in airway epithelial cells; type: cell-based, human
Protocol: as §2, with “For experiments involving Celecoxib or Verteporfin (Sigma Aldrich), NHBE cells were pre-treated with the drugs before the second washing step, as the presence of Celecoxib in the infranatant affected HASM mechanics (FIGS. 19A-B), and Verteporfin in the infranatant would have phototoxic effects on HASM cells during the live-cell micromechanical measurements. Since Verteporfin is a photosensitizer, treatment of NHBE cells was always performed in the dark.” left out

[6] = tested on: NHBE cells; assay: PGE2 content of epithelial infranatant (EIA kit); type: cell-based, human; details: epithelial cells with or without compressive stress
Protocol: as §3, with “seeding.” for “seeding. After NHBE cells reached confluence (within 3-5 days), the apical medium was removed and the basal medium was replaced with differentiation medium (PneumaCult-ALI™ Medium and Supplements, StemCell Technologies). The NHBE cells were maintained at the ALI for 2-3 weeks, until they differentiated into a pseudostratified layer. Excess mucus on the air side was washed away with warm PBS weekly.”
Media from the basal compartments (infranatant) were collected from control samples or after application of 30 cmH2O compressive stress on NHBE cells, and were assayed for the presence of PGE2 using a commercial EIA kit (DetectX™ Prostaglandin E2 High Sensitivity Immunoassay Kit, Arbor Assays, Ann Arbor, Mich.) following the manufacturer's instructions. The absorbance in the samples was measured at 450 nm with a microplate reader (Molecular Devices, Sunnyvale, Calif.). […]

With NCCc1c[nH]cn1 [Histamine, histamine] the ASM cell stiffness [1] was “increases ASM cell stiffness” and the “Stress relaxation of ASM cells” value [1] was “more difficult (slower) for the cells to relax stress”.
For CCCCC[C@H](O)/C=C/[C@H]1[C@H](O)CC(=O)[C@@H]1C/C=C\CCCC(=O)O [PGE2], the “Stiffness change (contraction or relaxation), asthmatic compared with non-asthmatic ASM cells” value (shortened to “Stiffness change … with non-asthmatic ASM cells”) [2] was “asthmatic ASM cells relaxed more”, the “ASM response to agonist” value ([2]; different doses and different patient samples) was “consistently caused ASM relaxation” and the “ASM contraction in lung-chip after pressure turned off” value [3] was “did not lead to relaxation”.
CCCCC[C@H](O)/C=C/[C@@H]1[C@@H](C/C=C\CCCC(=O)O)[C@@H](O)C[C@H]1O [PGF2α] was tested, and the “Stiffness change … with non-asthmatic ASM cells” value [2] was “did not yield a difference in response between asthmatic and non-asthmatic ASM cells”.
For C=C1[C@@H](C)[C@H]2[C@H](Cc3ccccc3)NC(=O)[C@]23[C@H](OC(C)=O)/C=C/[C@@](C)(O)C(=O)[C@@H](C)C/C=C/[C@H]3[C@@H]1O [cytochalasin D], the ASM cell stiffness [1] was “reduces ASM cell stiffness” and the “Stress relaxation of ASM cells” value [1] was “easier (faster) for the cells to relax stress”.
CC(C)NCC(O)c1ccc(O)c(O)c1 (stereo not shown) [isoproterenol] was tested, and the “Stiffness change … with non-asthmatic ASM cells” value [2] was “less relaxation in asthmatic ASM cells”.
With CC(=O)OC(C)C[N+](C)(C)C (stereo not shown) [methacholine] the “Stiffness change … with non-asthmatic ASM cells” value [2] was “stronger contraction in asthmatic ASM cells” and the “ASM contraction in lung-chip after pressure turned off” value [3] was “only slightly increased ASM contraction”.
With Verteporfin the “Effect of compressive stress on epithelial cells, read as ASM cell contraction in response to 0h and 3h-pressure epithelial samples” value [4] was “abrogated the effects of compressive stress”, the “COX2 (PTGS2) mRNA expression” value ([5]; airway epithelial cells) was “downregulated COX2” and the “Regulation of COX1 and COX2 mRNA by compressive stress” value ([5]; airway epithelial cells, compressive stress) was “prohibited the downregulation of COX1 and upregulation of COX2 by compressive stress”. For the same compound, the “Upregulation of CTGF mRNA by compressive stress” value ([5]; epithelial cells) was “this upregulation was abrogated” and the “PGE2 content of the infranatants” value [6] was “less PGE2 production and suppression of the effects of compressive stress”.
